In patent US7241732B2, “Compositions and methods involved in bone growth” (University of Rochester, priority 2001, dated 2007):

Tests used:
osteoblast gene products = assay: Osteoblast gene expression profile assay (real-time PCR); type: cell-based
Procedure: Both GPC4 and TRIP have been used in the creation of an osteoblast gene expression profile assay. This assay utilizes cDNA primer pairs that can be used to amplify a number of osteoblast gene products with real-time PCR. In addition to GPC4 and TRIP the following are assayed; osteocalcin (a bone specific protein), alkaline phosphatase (an enzyme present in large amounts in osteoblasts, cbfa1 (a transcription factor that induces osteoblast differentiation), PTH receptor 1 (the receptor responsible for PTH action), PTH receptor 2 (a secondary receptor that may be responsible for PTHrP action).
The data are interpretted by analyzing an increase in PCR cycle number, i.e. the number of PCR cycles necessary to obtain product. The higher the cylce number the smaller amount of starting mRNA.

[1] = target: T1, type V tartrate resistant acid phosphatase (TRAP) (Sus scrofa, UniProt P09889); assay: Phage display bio-panning of random 12 amino acid M13 library with immobilized TRAP; type: binding; settings: 44 phage clones sequenced after three rounds of bio-panning with TRAP
T1 construct: One was from a purified protein extraction; from tissue; host or cells: gift of Dr. R. M. Roberts (University of Missouri)
T1 sequence (P09889 22-340): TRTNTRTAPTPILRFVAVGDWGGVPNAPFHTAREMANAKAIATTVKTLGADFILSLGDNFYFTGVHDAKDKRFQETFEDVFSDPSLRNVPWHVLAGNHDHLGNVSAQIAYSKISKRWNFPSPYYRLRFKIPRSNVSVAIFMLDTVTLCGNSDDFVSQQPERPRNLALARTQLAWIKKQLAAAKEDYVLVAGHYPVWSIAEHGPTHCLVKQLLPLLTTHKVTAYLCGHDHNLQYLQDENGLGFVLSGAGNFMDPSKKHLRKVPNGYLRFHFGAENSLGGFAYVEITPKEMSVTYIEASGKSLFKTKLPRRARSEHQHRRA
Source text: In phage display either random peptide libraries or cell specific cDNA libraries can be used. Both have been used to target the interactions that take place in bone resporbtion and formation. Generally, the peptides or proteins are expressed on the surface coat of M13 or T7 phage and then these phage are used in a biopanning technique to identify which phage have affinity for a particular substrate (the “bait”). The adherent phage are eluted, amplified and used in another round of panning. After at least three rounds, phage clones are sequenced.
The TRAP used in these experiments was purified to homogeneity and was generously provided by Dr. M. Roberts.
After three rounds of bio-panning, elution and amplification 44 phage clones were selected at random and sequenced. Nine different sequences were identified. They are listed in Table 4 along with their consensus frequency. The most frequent phage sequenced was represented 15 times and the least frequent only a single time.

[2] = test system: osteoblast binding to osteoclast lacunae; assay: Competition cell binding assay, osteoblasts on pitted bone wafers; type: cell-based, rat
Procedure: (§1) The 12 amino acid oligopeptide corresponding to the sequence from Clone 5 can inhibit osteoblast binding to osteoclast lacunae. […] (For these experiments, approximately 20% of the area of the wafers was pitted.) A concentration of 50 nM for the oligopeptide blocked osteoblast binding by approximately 66%. A statistically significant inhibition for binding occurred down to a concentration of 10 pM of the oligopeptide.
as §1, with “For” for “(For”, “pitted.” for “pitted.)”
To measure the effect of selected phage peptides on osteoblast binding in osteoclast lacunae we performed a cell binding assay in the presence of increasing concentrations of the phage peptide. Osteoblasts were prelabeled with L-[4,5-^3H]Leucine (250 μCi TRK636-250 μCi, Amersham ) for 24 hrs. The osteoblasts were then added to pitted bone wafers in the presence of increasing concentrations of a synthetic 12 amino acid peptide that was identical to the phage sequence. After a two hour incubation at 37° C. the wafers were washed and the amount of radiolabel associated on each wafer determined by scintillation spectrometry. The specific activity of the cells (i.e. cpm/cell) was used to determine the number of cells adhering to the wafers.

TRAP (GAL-4-BD-TRAP) = assay: Mammalian two-hybrid assay TRAP / GPC4; type: cell-based, human; settings: SaOS2 cells
Procedure: A mammalian two-hybrid assay was performed utilizing materials obtained from Clonetech (catalog #K1602-1). In this procedure we created two fusion proteins; a GAL4-BD-TRAP and a VP16-AD-GPC4. […] The TRAP sequence was obtained from Dr. James Bixley, University of Missouri, Columbia, Mo. GPC4 was obtained from a human osteoblast cDNA library from MG-63 cells.
GAL-4-BD-TRAP binds to the promoter of a luciferase reporter gene and the VP-16-AD-GPC4 activates RNA polymerase II activity. If the two target proteins interact with each other they will bring the binding domain protein into the vicinity of the activation domain and luciferase transcription will occur. The presence of luciferase activity in co-transfected cells is evidence for a physical association between the proteins.
In a control experiment, a second VP-16-AD protein was constructed using a GPC4 sequence deficient in the 12 amino acids identified from Clone 5 phage biopanning. This construct is termed VP-16-AD-GPC412. Deletion of the 12 amino acids from the GPC4 gene was accomplished with linker scanning mutagenesis
Pairs of plasmids were co-transfected into SaOS2 osteoblast-like cells using Lipofectamine®.

Chain of TRAP (GAL-4-BD-TRAP) (P13686 22-325): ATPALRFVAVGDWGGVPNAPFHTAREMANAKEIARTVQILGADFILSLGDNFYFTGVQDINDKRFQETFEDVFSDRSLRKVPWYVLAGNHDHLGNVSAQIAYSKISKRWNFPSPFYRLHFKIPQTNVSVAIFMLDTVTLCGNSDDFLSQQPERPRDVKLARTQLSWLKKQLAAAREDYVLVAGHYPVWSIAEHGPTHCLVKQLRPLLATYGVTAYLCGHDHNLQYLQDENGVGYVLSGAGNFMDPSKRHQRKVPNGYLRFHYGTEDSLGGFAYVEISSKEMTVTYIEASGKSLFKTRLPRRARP

Lead
effect on osteoblast gene products (in words) (osteoblast gene products): depresses all of the above gene products including GPC4 and TRIP | Lead PCR cycle number, TRIP (osteoblast gene products; control 21): 26 | Lead PCR cycle number, alkaline phosphatase (osteoblast gene products; control 23): 27 | Lead PCR cycle number, osteocalcin (osteoblast gene products; control 23): 26 | Lead PCR cycle number, cbfa1 (osteoblast gene products; control 24): 28 | Lead PCR cycle number, PTH receptor 1 (osteoblast gene products; control 28): 33 | Lead PCR cycle number, PTH receptor 2 (osteoblast gene products; control 31): 32 | Lead PCR cycle number, GPC4 (osteoblast gene products; higher cycle number = smaller amount of starting mRNA, control 19): 24

SEQ. ID No. 2: phage clone insert DNA from TRAP bio-panning, encodes peptide SEQ. ID No. 20 (DNA ACTATGGGTTTTACGGCTCCGCGGTTTCCGCATTAT; expressed or natural sequence)
Fre (consensus frequency among sequenced phage clones) [1]: 6/44

SEQ. ID No. 3: phage clone insert DNA from TRAP bio-panning, encodes peptide SEQ. ID No. 21 (DNA TCTCAGTGGCATCCGCGGTCTGCGTCGTATCCGATG; expressed or natural sequence)
Fre (consensus frequency among sequenced phage clones) [1]: 4/44

SEQ. ID No. 4: phage clone insert DNA from TRAP bio-panning, encodes peptide SEQ. ID No. 22 (DNA ACGCCGTCTCTTCCTCCGACTATGTTTCGGTTGACT; expressed or natural sequence)
Fre (consensus frequency among sequenced phage clones) [1]: 4/44

SEQ. ID No. 6: phage clone insert DNA from TRAP bio-panning, encodes peptide SEQ. ID No. 24 (DNA CGGCCACGGAACACCAGTAGACGTCCCATGCGCAGA; expressed or natural sequence)
Fre (consensus frequency among sequenced phage clones) [1]: 2/44

SEQ. ID No. 7: phage clone insert DNA from TRAP bio-panning, encodes peptide SEQ. ID No. 25 (DNA ATAATGCGGAAACCGCGGAGCCGTAAAACCCATAGT; expressed or natural sequence)
Fre (consensus frequency among sequenced phage clones) [1]: 5/44

SEQ. ID No. 8: phage clone insert DNA from TRAP bio-panning, encodes peptide SEQ. ID No. 26 (DNA CGGCCAACGGAACACCAGTAGACGTCCCATGCGCAG; expressed or natural sequence)
Fre (consensus frequency among sequenced phage clones) [1]: 2/44

SEQ. ID No. 9: phage clone insert DNA from TRAP bio-panning, encodes peptide SEQ. ID No. 27 (DNA ACCAAGCCCCGAATCACGCGAATAAAGCGGCCAAGA; expressed or natural sequence)
Fre (consensus frequency among sequenced phage clones) [1]: 2/44

TPLSYLKGLVTV [Clone 5 peptide]
blocked osteoblast binding ([2]; 50 nM oligopeptide, about 20% of wafer area pitted): approximately 66% | interference with osteoblast binding to osteoclast lacunae (in words) ([2]; FIG. 13): interfere with this osteoblast binding in a dose dependent fashion | lowest concentration with statistically significant inhibition of osteoblast binding ([2]; pitted bone wafers): 10 pM

B1: VP-16-AD-GPC4: glypican 4 (GPC4) expressed as fusion protein with VP-16 activation domain (protein)
chain: ALLAAELKSKSCSEVRRLYVSKGFNKNDAPLHEINGDHLKICPQGSTCCSQEMEEKYSLQSKDDFKSVVSEQCNHLQAVFASRYKKFDEFFKELLENAEKSLNDMFVKTYGHLYMQNSELFKDLFVELKRYYVVGNVNLEEMLNDFWARLLERMFRLVNSQYHFTDEYLECVSKYTEQLKPFGDVPRKLKLQVTRAFVAARTFAQGLAVAGDVVSKVSVVNPTAQCTHALLKMIYCSHCRGLVTVKPCYNYCSNIMRGCLANQGDLDFEWNNFIDAMLMVAERLEGPFNIESVMDPIDVKISDAIMNMQDNSVQVSQKVFQGCGPPKPLPAGRISRSISESAFSARFRPHHPEERPTTAAGTSLDRLVTDVKEKLKQAKKFWSSLPSNVCNDERMAAGNGNEDDCWNGKGKSRYLFAVTGNGLANQGNNPEVQVDTSKPDILILRQIMALRVMTSKMKNAYNGNDVDFFDISDESSGEGSGSGCEYQQCPSEFDYNATDHAGKSANEKADS
modifications: left off: large carriers
increase in luciferase activity on co-transfection with GAL-4-BD-TRAP (TRAP (GAL-4-BD-TRAP)): 10-20 fold

B2: VP-16-AD-GPC412: VP-16-AD fusion of GPC4 deficient in the 12 amino acids identified from Clone 5 (protein)
chain: ALLAAELKSKSCSEVRRLYVSKGFNKNDAPLHEINGDHLKICPQGSTCCSQEMEEKYSLQSKDDFKSVVSEQCNHLQAVFASRYKKFDEFFKELLENAEKSLNDMFVKTYGHLYMQNSELFKDLFVELKRYYVVGNVNLEEMLNDFWARLLERMFRLVNSQYHFTDEYLECVSKYTEQLKPFGDVPRKLKLQVTRAFVAARTFAQGLAVAGDVVSKVSVVNPTAQCTHALLKMKPCYNYCSNIMRGCLANQGDLDFEWNNFIDAMLMVAERLEGPFNIESVMDPIDVKISDAIMNMQDNSVQVSQKVFQGCGPPKPLPAGRISRSISESAFSARFRPHHPEERPTTAAGTSLDRLVTDVKEKLKQAKKFWSSLPSNVCNDERMAAGNGNEDDCWNGKGKSRYLFAVTGNGLANQGNNPEVQVDTSKPDILILRQIMALRVMTSKMKNAYNGNDVDFFDISDESSGEGSGSGCEYQQCPSEFDYNATDHAGKSANEKADSAGVRPGAQAYLLTVFCILFLVMQREWR
modifications: left off: large carriers
increase in luciferase activity on co-transfection with GAL-4-BD-TRAP (TRAP (GAL-4-BD-TRAP)): showed no difference from control levels
